The values that follow come from patent US12280026B2, “Use of repirinast in the prophylaxis or treatment of renal fibrosis or kidney disease” (ALGERNON PHARMACEUTICALS INC., priority 2018, dated 2025).

Entries after “also recorded” stand apart in the source; their conditions may differ.

For the experiment, the system named is C57BL/6 mice with UUO surgical ligation. In words: Example 1: UUO mice, kidney weight evaluation (ligated vs non-ligated kidney). The experiment is classed as in vivo. As to conditions: doses of Table 1 (Telmisartan 5 mg/kg). As to the method: Male 9-12 week old C57BL/6 mice of 23-25 grams body weight were used. All mice were acclimated for a minimum of 5 days prior to the start of the study and housed individually in microisolators throughout the study in a 12:12 light-dark cycle on a standard maintenance mouse chow diet (Harlan Teklad 2018) with food and water given ad libitum. Prior to surgery, all mice were weighed for baseline body weight.
The UUO surgical intervention was performed according to previously described methods known in the art (Le Meur Y et al., Macrophage accumulation at a site of renal inflammation is dependent on the M-CSF/c-fms pathway, J Leukocyte Biol., 72:530-537; 2002). […]
The dose selected for the animal studies was determined by taking the maximum known human daily dose, dividing by the average weight of an adult (˜60-70 kg) to get a human mg/kg dose. […]
Kidney weight: The UUO was then examined in situ to ensure that the surgical ligation ties remained patent. […] Weights of both kidneys were measured using a laboratory balance.
Kidney Weight Evaluation: Kidney weight indicating, which indicates functional and pathological changes in the kidney, was evaluated by measuring the weight of both the ligated (UUO) and non-ligated kidneys as previously described. […]

For the compound `CCCc1nc2c(C)cc(-c3nc4ccccc4n3C)cc2n1Cc1ccc(-c2ccccc2C(=O)O)cc1` [Telmisartan, 2-(4-{[4-Methyl-6-(1-methyl-1H-1,3-benzodiazol-2-yl)-2-propyl-1H-1,3-benzodiazol-1-yl]methyl}phenyl)benzoic acid], the “Disparity in weight between ligated and non-ligated kidney, in words” value is recorded as “greatest numerical reduction in the disparity between the two kidneys; also recorded: appeared to reduce the disparity in kidney size”.
